According to article PMC6076261, “A new quinoline-based chemical probe inhibits the autophagy-related cysteine protease ATG4B” (Scientific Reports, 2018):

Assays:
SKBR3-hrGFP-LC3B cells = experiment: High content screening of GFP-LC3B puncta; type: cell-based; settings: 100 nM, 1 µM, 10 µM; 6 h and 24 h
From the text: One hundred of the predicted best binding ATG4B inhibitors were obtained to test for effects on GFP-LC3B puncta levels in SKBR3-hrGFP-LC3B breast cancer cells cultured in standard fed conditions. Based on our observations using ATG4B-siRNAs (Figs 2a,b and S1) and several reports in the literature[22]–[24], we expected that reduced ATG4B function would primarily affect LC3B-II recycling and lead to an increase in GFP-LC3B puncta, whereas complete loss of ATG4B would also affect pro-LC3B processing and lead to a decrease in GFP-LC3B puncta formation. Compounds were initially tested at three concentrations (100 nM, 1 µM and 10 µM) and two treatment periods (6 hour and 24 hour). In parallel, all compounds were tested at a single concentration (8 µM) in a FRET-LC3 ATG4B enzymatic assay developed in our group. […] Calculations predicted that compound 1–4 bound to closed binding site#1 (Fig. S2) while 2–22 and 3–22 bound to open site#2 (Fig. S3) and 4–6 and 4–28 bound to closed site#2 (Figs S4 and S5). Of these, compounds 1–4 and 4–6 are biphenols which are potentially metabolically unstable by oxidation, sulfation and glucuronidation pathways. Compound 2–22 and 3–22 have electrophilic sites, which are drawbacks for drug development as they are prone to metabolic transformation and could lead to covalent bond formation with biological nucleophiles. […] It was nonetheless selected for further follow-up based on its favorable structural characteristics and resemblance to the known drugs and lysosomal-related autophagy inhibitors, chloroquine and hydroxychloroquine, and to the styrylquinoline, MK-571, a selective antagonist of leukotriene D4 known to have an excellent pharmacokinetic profile in terms of oral bioavailability and long duration of action.
High-throughput fluorescence microscopy was performed at room-temperature on the InCell Analyzer 1000 (GE Healthcare) using the 20X objective to view Hoescht 33342 nuclear stain, ethidium homodimer (EthD1) viability stain and GFP-LC3 puncta in SKBR3-hrGFP-LC3B cells. Thirty min prior to imaging, cells were incubated at 37 °C with 4 µM Hoechst 33342 (Invitrogen) and 0.5 µM EthD1 (Invitrogen). Image analysis was performed using InCell Developer Toolbox (Ver. 1.6, GE Healthcare). Individual cells were identified with segmentation of nuclei based on Hoechst 33342 staining. Cell borders were determined by defining a radius around the nucleus. Cells were classified as “dead” if the defined cell overlapped by at least 50% with the EthD1 signal. The number of GFP-LC3 puncta within each live cell was then counted, as well as the number of live cells with at least 5 puncta. Puncta were defined as GFP positive structures of at least 1 pixel with a form factor (estimate of circularity) of at least 0.4.

ATG4B [1] = target: T1, ATG4B (Homo sapiens, UniProt Q9Y4P1); experiment: FRET-LC3 ATG4B enzymatic assay; type: biochemical; settings: read-out: inhibition in the screening FRET assay
T1 sequence (Q9Y4P1 1-393): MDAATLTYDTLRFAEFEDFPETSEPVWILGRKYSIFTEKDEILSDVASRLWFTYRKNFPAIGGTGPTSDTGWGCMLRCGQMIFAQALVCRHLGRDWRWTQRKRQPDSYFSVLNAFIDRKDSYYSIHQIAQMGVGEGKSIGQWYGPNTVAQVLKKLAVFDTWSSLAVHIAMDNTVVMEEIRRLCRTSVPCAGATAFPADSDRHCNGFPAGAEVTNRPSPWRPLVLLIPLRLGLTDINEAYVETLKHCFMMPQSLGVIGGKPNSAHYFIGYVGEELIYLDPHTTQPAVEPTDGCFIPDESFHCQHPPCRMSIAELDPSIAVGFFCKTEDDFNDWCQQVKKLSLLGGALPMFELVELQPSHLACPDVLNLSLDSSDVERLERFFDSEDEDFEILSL

ATG4B [2] = target: T1, ATG4B; experiment: Mass spectrometry ATG4B enzymatic assay with GFP-LC3-YFP substrate
Procedure: The sample was centrifuged at 10000 × g during 1 min. The supernatant was removed. This operation was done two more times. […] 15 µL of this ATG4B solution were mixed with the 20 µL rinsed immobilized TCEP solution. The solution was incubated on a carousel at 4 °C for 1 h. […] Kinetic determination was performed in triplicate in 1 dram HPLC vials using 350 µL glass inserts. […] The analysis of the m/z distribution signal resulting from the protein substrate was performed by Agilent MassHunter Workstation software elucidating proteins 20000–80000 Da between 700 m/z and 1800 m/z. […] The amount of cleavage was determined by calculating the value of the formula A/(A + B) where A was the peak height of the 27885 Da residue and B was the peak height of the 72904 Da residue. Each experiment was assessed with a concomitant parallel negative control.

ATG4B [3] = target: T1, ATG4B; experiment: Fluorimetric ATG4B enzymatic assay with fluorescent peptide substrate pim-FG-PABA-AMC; type: biochemical; settings: for IC50: pim-FG-PABA-AMC substrate, read-out: IC50, fluorimetric assay with fluorogenic peptide substrate
Procedure: 100 μL of immobilized TCEP in deionized water was diluted in 2.50 mL of buffer (50 mM Tris, 35 mM NaCl, pH = 8). The sample was centrifuged at 10,000 × g during 1 min. The supernatant was removed. This operation was done two more times. […] The solution was incubated on a carousel at 4 °C for 1 h. This solution was then diluted with 2.06 mL of buffer (50 mM Tris, 35 mM NaCl, 5 mM EDTA, pH 8), centrifuged at 10,000 × g during 1 min and the supernatant, containing the activated ATG4B (1 µM), was kept. A 96-well all-black plate was loaded where each well was charged with 55 µL of inhibitor at different concentrations (0 µM to 100 µM or 200 µM) in buffer/DMSO 41:3 (v/v) and 20 μL of enzyme or buffer were dispensed using a dispenser (Biotek). Plate was incubated for 30 min. A single read was done using excitation and emission wavelengths of 350/450 nm. 25 µL of peptide substrate (pim-FG-PABA-AMC)[52] (final assay concentration 100 µM) was dispensed using a dispenser (Biotek). Experiments were performed in triplicate except when it is mentioned. Fluorescent reads were performed using the Synergy 4 (Biotek) at 25 °C using excitation and emission wavelengths of 350/450 nm every 15 min for 2 h.

MCF7 cells = experiment: LC3B-based autophagy flux assay (western blot) in MCF7 cells; type: cell-based; settings: with and without bafilomycin A1
From the text: While the effects observed were modest, this observation is consistent with reduced LC3B-II recycling and reduced autophagic flux.

[4] = Stability of 4-28 under irradiation, HPLC analysis; type: physicochemical
From the text: 4–28 is a 4-aminostyrylquinoline, a structural class known to be photo-reactive[51]. In preliminary assays under standard conditions with the reducing agent TCEP present, we noted the formation of isomers and adducts between 4–28 and TCEP (Fig. 3b). Thus, to confirm the ability of 4–28 to inhibit ATG4B activity, we used a mass spectrometry assay using a GFP-LC3-YFP substrate[36] and by using activation of the enzyme with TCEP on solid support, which can be easily removed after the activation and prior to incubation with the inhibitor. […] (Fig. 3d). […] By these two assays, we confirmed the ability of 4–28 to inhibit ATG4B catalytic activity.
In our case, with incubation of 4–28 for 1 h under UV-irradiation, the formation of the cis compound was observed by HPLC and ^1H NMR along with other compounds consistent with further electrocyclization (Figs 3b and S6 and S7). Given these observed instabilities and reactivity, a structure-activity relationship study was initiated with an aim to identify an analog with improved stability and enhanced potency against ATG4B and with a pharmacokinetic profile suitable to support in vivo testing.

IC50 (ATG4B [3])	SMILES	effect on GFP-LC3 puncta in primary screen (SKBR3-hrGFP-LC3B cells)	also measured
	Cc1cc(Cc2cc(C)c(O)c(CO)c2)cc(CO)c1O [1–4]	increase in GFP-LC3 puncta	
	COc1cccc(NC(=O)C(=O)C(C(=O)c2ccccc2F)C2OC(=O)c3ccccc32)c1 (stereo not shown) [2–22]	increase in GFP-LC3 puncta	
	O=C(Nc1ccc([N+](=O)[O-])cc1)C(=O)C(C(=O)c1ccccc1F)C1OC(=O)c2ccccc21 (stereo not shown) [3–22]	increase in GFP-LC3 puncta	
> 100 µM	CCOC(=O)CCSC(SCCC(=O)OCC)c1ccc(/C=C/c2ccnc3cc(Cl)ccc23)cc1 [Compound 68]		
> 100 µM	C=CCSC(SCC=C)c1ccc(/C=C/c2ccnc3cc(Cl)ccc23)cc1 [Compound 69]		
	CCN(CCO)CCCC(C)Nc1ccnc2cc(Cl)ccc12 (stereo not shown) [hydroxychloroquine, reference compound]		inhibition of activity of purified ATG4B (ATG4B [3]; up to 200 µM): did not show significant inhibition

SMILES	IC50 (ATG4B [3])	effect on GFP-LC3 puncta in primary screen (SKBR3-hrGFP-LC3B cells)	also measured
CCCCN(CCC(=O)O)c1ccc(/C=C/c2ccnc3ccccc23)cc1 [4–28]	79 ± 9 µM	decrease in GFP-LC3 puncta	inhibition at 8 µM (ATG4B [1]): 43%; IC50 (ATG4B [2]): 116 ± 14 µM; endogenous LC3B-II (MCF7 cells): accumulation of LC3B-II that was not additive to bafilomycin A1; cis-isomer formed under assay conditions ([4]; 1 irradiation at 350 nm each 15 min for 2 h): 4%; stability under UV irradiation ([4]; 1 h UV irradiation, HPLC and 1H NMR): instability under UV irradiation
